5 compounds from the supplement of paper PMC12350171 can be followed below.

One experiment has as its system Escherichia coli ED1a. Briefly: IC25 growth inhibition; higher = less potent. In a few lines:
(§1)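 Overnight monocultures grown in mGAM were moved into pre-reduced plates containing twofold drug dilutions, at a starting OD578 of 0.01 with 1% DMSO (or water). Plates were kept anaerobic and read hourly at OD578 in a plate reader, with at least three biological replicates. For each concentration, the median area under the growth curve was made monotonic, and IC25 was the lowest concentration whose median fell below a cutoff, reported as a tested interval. That cutoff was 0.75.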

Experiment [1] relates to Fusobacterium nucleatum subsp. Nucleatum. Briefly: IC25 growth inhibition; higher = less potent. In a few lines: as §1
The next experiment concerns Coprococcus comes. As to the kind of experiment: IC25 growth inhibition; higher = less potent. In a few lines:
as §1

The test system of the next experiment is Bacteroides uniformis. Briefly: IC25 growth inhibition; higher = less potent. In a few lines:
as §1

The test system of the next experiment is Ruminococcus gnavus. As to the kind of experiment: IC25 growth inhibition; higher = less potent. In a few lines: as §1
The next experiment concerns Roseburia intestinalis. As to the kind of experiment: IC25 growth inhibition; higher = less potent. In a few lines: as §1
The subject of the next experiment is Bacteroides vulgatus. As to the kind of experiment: IC25 growth inhibition; higher = less potent. In a few lines:
as §1

Experiment [2] has as its system Streptococcus parasanguinis. Briefly: IC25 growth inhibition; higher = less potent. In a few lines:
as §1

Experiment [3] has as its system Bacteroides thetaiotaomicron. Briefly: IC25 growth inhibition; higher = less potent. In a few lines: as §1
The next experiment concerns Dorea formicigenerans. Briefly: IC25 growth inhibition; higher = less potent. In a few lines: as §1
The test system of a further experiment is Streptococcus salivarius. Briefly: IC25 growth inhibition; higher = less potent. In a few lines:
as §1

The test system of a further experiment is Vibrio cholerae. Briefly: IC25 growth inhibition; higher = less potent. In a few lines: as §1
The subject of the next experiment is Parabacteroides merdae. As to the kind of experiment: IC25 growth inhibition; higher = less potent. In a few lines:
as §1

The test system of experiment [4] is Yersinia pseudotuberculosis. As to the kind of experiment: IC25 growth inhibition; higher = less potent. In a few lines: as §1
The subject of another experiment is Bacteroides fragilis NT. Briefly: IC25 growth inhibition; higher = less potent. In a few lines: as §1
The subject of the next experiment is Shigella flexneri. As to the kind of experiment: IC25 growth inhibition; higher = less potent. In a few lines:
as §1

Experiment [5] has as its system Yersinia enterocolitica WA-314. Briefly: IC25 growth inhibition; higher = less potent. In a few lines: as §1
In experiment [6] the test system is Salmonella enterica typhimurium. Briefly: IC25 growth inhibition; higher = less potent. In a few lines:
as §1

Another experiment concerns Eubacterium rectale. As to the kind of experiment: IC25 growth inhibition; higher = less potent. In a few lines: as §1
The subject of another experiment is Collinsella aerofaciens. Briefly: IC25 growth inhibition; higher = less potent. In a few lines: as §1
In the next experiment the test system is Clostridium ramosum. As to the kind of experiment: IC25 growth inhibition; higher = less potent. In a few lines:
as §1

Another experiment has as its system Clostridium bolteae. As to the kind of experiment: IC25 growth inhibition; higher = less potent. In a few lines: as §1
The test system of experiment [7] is Clostridium saccharolyticum. As to the kind of experiment: IC25 growth inhibition; higher = less potent. In a few lines: as §1
The test system of a further experiment is Clostridium perfringens. Briefly: IC25 growth inhibition; higher = less potent. In a few lines:
as §1

Experiment [8] concerns Com21 synthetic gut community. As to the kind of experiment: community biomass OD578 after 24 h drug treatment relative to untreated (fraction of untreated control); higher = more community growth. The conditions noted are these: community: Com21 (Com20 + E. coli ED1a). On the procedure:
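Com21 (Com20 plus E. coli ED1a) was treated with drug for 24 h under anaerobic conditions in mGAM. Community OD578 was then measured and normalised to untreated Com21; mean of 3 biological replicates.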
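Wherever IC25 growth inhibition is given: lowest concentration where monotonic median growth AUC falls below 0.75 of drug-free control.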

With `CCOC(=O)C1=C(COCCN)NC(C)=C(C(=O)OC)C1c1ccccc1Cl` (configuration not stated) [Amlodipine], the IC25 growth inhibition in the experiment with Escherichia coli ED1a was > 80 µM; in experiment [1] it was ≤ 80 µM; with Coprococcus comes, > 80 µM; with Bacteroides uniformis it was ≤ 80 µM; in the experiment with Ruminococcus gnavus, ≤ 80 µM; in the experiment on Roseburia intestinalis, ≤ 40 µM. Further, the IC25 growth inhibition is ≤ 40 µM in the experiment with Bacteroides vulgatus; > 80 µM in experiment [2]; ≤ 80 µM in [3]; ≤ 40 µM with Dorea formicigenerans; ≤ 40 µM in the experiment on Streptococcus salivarius; > 80 µM in the experiment with Vibrio cholerae. The IC25 growth inhibition is ≤ 80 µM with Parabacteroides merdae; > 80 µM in [4]; ≤ 80 µM in the experiment on Bacteroides fragilis NT; > 80 µM in the experiment on Shigella flexneri; > 80 µM in [5]; > 80 µM in experiment [6]. In addition, the IC25 growth inhibition with Eubacterium rectale and with Collinsella aerofaciens was ≤ 80 µM in each case.

Regarding `O=C1CCc2ccc(OCCCCN3CCN(c4cccc(Cl)c4Cl)CC3)cc2N1` [Aripiprazole], the IC25 growth inhibition (in the experiment with Escherichia coli ED1a; in experiment [1]; in the experiment with Clostridium ramosum; in the experiment on Coprococcus comes; in the experiment with Bacteroides uniformis; with Ruminococcus gnavus) was > 160 µM each time. The IC25 growth inhibition was > 160 µM in the experiment with Roseburia intestinalis; > 160 µM in the experiment with Bacteroides vulgatus; > 80 µM in experiment [2]; > 160 µM in [3]; > 160 µM in the experiment on Dorea formicigenerans; > 160 µM with Clostridium bolteae. Also, the IC25 growth inhibition was > 80 µM in the experiment with Streptococcus salivarius; > 160 µM in the experiment on Vibrio cholerae; > 160 µM in the experiment on Parabacteroides merdae; > 40 µM in [4]; > 160 µM in the experiment on Bacteroides fragilis NT; > 160 µM in the experiment with Shigella flexneri. Moreover, the IC25 growth inhibition in [5] is > 160 µM; in experiment [7] it was > 160 µM; in the experiment on Clostridium perfringens, > 160 µM; in experiment [6], > 80 µM; in the experiment with Eubacterium rectale, > 160 µM; in the experiment on Collinsella aerofaciens, > 160 µM.

As for `CC[C@H](C)[C@H]1O[C@]2(C=C[C@@H]1C)C[C@@H]1C[C@@H](C/C=C(\C)[C@@H](O[C@H]3C[C@H](OC)[C@@H](O[C@H]4C[C@H](OC)[C@@H](O)[C@H](C)O4)[C@H](C)O3)[C@@H](C)/C=C/C=C3\CO[C@@H]4[C@H](O)C(C)=C[C@@H](C(=O)O1)[C@]34O)O2.CO[C@H]1C[C@H](O[C@H]2[C@H](C)O[C@@H](O[C@@H]3/C(C)=C/C[C@@H]4C[C@@H](C[C@]5(C=C[C@H](C)[C@@H](C(C)C)O5)O4)OC(=O)[C@@H]4C=C(C)[C@@H](O)[C@H]5OC/C(=C\C=C\[C@@H]3C)[C@]54O)C[C@@H]2OC)O[C@@H](C)[C@@H]1O` [Avermectin B1], the IC25 growth inhibition in the experiment on Escherichia coli ED1a is > 160 µM; in [1], > 40 µM; in the experiment on Clostridium ramosum it was ≤ 40 µM; in the experiment on Coprococcus comes, ≤ 20 µM; in the experiment with Bacteroides uniformis it was ≤ 20 µM; with Ruminococcus gnavus it was ≤ 10 µM. Besides, the IC25 growth inhibition in the experiment with Roseburia intestinalis was ≤ 2.5 µM; in the experiment on Bacteroides vulgatus, ≤ 10 µM; in experiment [2], ≤ 20 µM; in experiment [3], ≤ 20 µM; in the experiment with Dorea formicigenerans, ≤ 5 µM; in the experiment with Clostridium bolteae, ≤ 40 µM. The IC25 growth inhibition with Streptococcus salivarius is ≤ 10 µM; in the experiment with Vibrio cholerae, > 20 µM; with Parabacteroides merdae, ≤ 10 µM; in experiment [4], > 10 µM; in the experiment on Bacteroides fragilis NT, ≤ 10 µM; with Shigella flexneri, > 20 µM. Besides, the IC25 growth inhibition was > 10 µM in [5]; ≤ 80 µM in experiment [7]; ≤ 10 µM in the experiment with Clostridium perfringens; > 80 µM in experiment [6]; ≤ 10 µM in the experiment with Eubacterium rectale; ≤ 10 µM in the experiment with Collinsella aerofaciens.

As for `CC[C@H]1OC(=O)[C@H](C)[C@@H](O[C@H]2C[C@@](C)(OC)[C@@H](O)[C@H](C)O2)[C@H](C)[C@@H](O[C@@H]2O[C@H](C)C[C@H](N(C)C)[C@H]2O)[C@](C)(OC)C[C@@H](C)C(=O)[C@H](C)[C@@H](O)[C@]1(C)O` [Clarithromycin], the IC25 growth inhibition in the experiment with Escherichia coli ED1a is ≤ 40 µM; in experiment [1], ≤ 5 µM; with Clostridium ramosum, < 1.25 µM; with Coprococcus comes, < 1.25 µM; in the experiment with Bacteroides uniformis it was < 1.25 µM; in the experiment with Ruminococcus gnavus, < 1.25 µM. For the same compound, the IC25 growth inhibition (in the experiment with Roseburia intestinalis; with Bacteroides vulgatus; in experiment [2]; in experiment [3]; in the experiment with Dorea formicigenerans; in the experiment with Clostridium bolteae) was < 1.25 µM in each case. Further, the IC25 growth inhibition in the experiment on Streptococcus salivarius was < 1.25 µM; with Vibrio cholerae, < 1.25 µM; in the experiment with Parabacteroides merdae, < 1.25 µM; in [4], > 160 µM; in the experiment with Bacteroides fragilis NT, < 1.25 µM; in the experiment with Shigella flexneri, ≤ 10 µM. Besides, the IC25 growth inhibition was ≤ 5 µM in experiment [5]; < 1.25 µM in experiment [7]; < 1.25 µM with Clostridium perfringens; ≤ 40 µM in experiment [6]; < 1.25 µM in the experiment with Eubacterium rectale; < 1.25 µM with Collinsella aerofaciens.

On to `CCC[C@@H]1C[C@@H](C(=O)N[C@@H]([C@H]2O[C@H](SC)[C@H](O)[C@@H](O)[C@H]2O)[C@H](C)Cl)N(C)C1` [Clindamycin], for which the “community biomass OD578” value was 0.263 in experiment [8] (drug pretreatment concentration 10 µM); 0.273 in experiment [8] (drug pretreatment concentration 20 µM); 0.238 in [8] (drug pretreatment concentration 40 µM); 0.158 in experiment [8] (drug pretreatment concentration 80 µM); 0.062 in [8] (drug pretreatment concentration 160 µM).
